# Laboratory results taken from ChEMBL document CHEMBL4406799, “Identification of benzo[cd]indol-2(1H)-ones as novel Atg4B inhibitors via a structure-based virtual screening and a novel AlphaScreen assay” (Eur J Med Chem, 2019).
# Active and inactive are the calls of the source. The calls are words filed in the database; no cut-off is given here.
# Columns and labels:
# [1] = biological target: T1, Cysteine protease ATG4B (Homo sapiens, UniProt Q9Y4P1); test: Inhibition of ATG4B (unknown origin) using N-(His)6-LC3B(L123C)Biotin as substrate preincubated for 30 mins and measured after 1 hr by AlphaScreen method
# T1 sequence (Q9Y4P1 whole entry): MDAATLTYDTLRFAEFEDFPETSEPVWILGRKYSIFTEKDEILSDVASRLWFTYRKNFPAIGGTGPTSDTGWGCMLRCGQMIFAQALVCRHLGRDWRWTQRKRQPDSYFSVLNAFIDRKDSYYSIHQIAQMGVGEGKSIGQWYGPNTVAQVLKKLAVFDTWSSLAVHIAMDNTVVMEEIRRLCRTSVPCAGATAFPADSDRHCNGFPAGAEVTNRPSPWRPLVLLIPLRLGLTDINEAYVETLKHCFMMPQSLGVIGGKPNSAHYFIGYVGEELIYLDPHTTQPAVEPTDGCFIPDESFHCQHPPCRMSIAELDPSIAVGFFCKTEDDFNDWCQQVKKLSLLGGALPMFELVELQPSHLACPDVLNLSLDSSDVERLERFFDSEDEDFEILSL
# [2] = biological target: T1, Cysteine protease ATG4B; test: Inhibition of recombinant ATG4B (unknown origin) expressed in Escherichia coli BL21(DE3) using LC3-PLA2 as substrate by fluoroscence based assay
# [3] = system: HT-29; test: Antiproliferative activity against human HT-29 cells assessed as reduction in cell viability at 75 uM in presence of oxaliplatin after 24 to 72 hrs by MTT assay; format: functional, cell-based
# [4] = biological target: T2, Papain (Carica papaya) (UniProt P00784); test: Inhibition of papaya papain at 50 uM using L-pyroglutamyl-L-phenylalanyl-L-leucine-p-nitroanilide as substrate measured after 30 mins
# T2 sequence (whole entry): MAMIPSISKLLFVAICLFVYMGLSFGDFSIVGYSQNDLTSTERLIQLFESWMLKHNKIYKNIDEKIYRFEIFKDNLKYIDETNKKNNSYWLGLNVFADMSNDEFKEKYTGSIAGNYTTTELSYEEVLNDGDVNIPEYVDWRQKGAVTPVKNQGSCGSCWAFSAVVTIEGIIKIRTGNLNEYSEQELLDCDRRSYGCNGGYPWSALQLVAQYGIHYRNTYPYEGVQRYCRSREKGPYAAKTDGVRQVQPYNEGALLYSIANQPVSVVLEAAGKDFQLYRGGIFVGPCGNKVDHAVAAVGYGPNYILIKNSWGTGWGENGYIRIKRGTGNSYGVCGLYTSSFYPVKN
# [5] = system: HT-29; conditions: Homo sapiens, 100 to 200 uM
# Description: Inhibition of autophagic flux in human HT-29 cells assessed as increase in LC3-2 expression at 100 to 200 uM after 16 hrs by Western blot analysis
# [6] = system: HT-29; conditions: Homo sapiens, 100 to 200 uM; remark: listed apart in the source
# Description: Inhibition of autophagic flux in human HT-29 cells assessed as reduction in p62 degradation at 100 to 200 uM after 16 hrs by Western blot analysis
# [7] = biological target: T1, Cysteine protease ATG4B; test: Inhibition of ATG4B (unknown origin) using N-(His)6-LC3B(L123C) as substrate preincubated for 1 hr followed by substrate addition and measured after 30 mins MS-based analysis
IC50 ([1]; read-out: IC50),inhibition [4],IC50 [7],Structure (SMILES),further results
315 µM,,,O=C(/C=C1/Nc2cc(Cl)c(Cl)cc2NC1=O)N/N=C/c1ccccc1O,
,,,O=c1oc2c(O)c(O)cc3c(=O)oc4c(O)c(O)cc1c4c23 [ELLAGIC ACID],IC50 [2]: 3 µM
,inactive,,CCCCC(O)CNc1cc2c3c(cccc3c1)C(=O)N2 (stereo unspecified),Activity [3]: Active; inhibition [5]: Active; inhibition [6]: Active
> 300 µM,,280 µM,O=C1Nc2ccc(NCC(O)CCl)c3cccc1c23 (stereo unspecified),
,inactive,,O=C1Nc2cccc3cc(NCC(O)CCl)cc1c23 (stereo unspecified),
,,,C=CCCC(O)CNc1cc2c3c(cccc3c1)NC2=O (stereo unspecified),IC50 [1]: Not Active
300 µM,,150 µM,Oc1ccc(C2=Nc3cccc4cccc(c34)N2)cc1,
235 µM,,215 µM,CCCCC(O)CNc1cc2c3c(cccc3c1)NC2=O (stereo unspecified),
,Active,,O=C(N[C@@H](Cc1ccccc1)C(=O)CCl)OCc1ccccc1,
,,,O=C1NC(=O)c2cc(NCC(O)CCl)cc3cccc1c23 (stereo unspecified),IC50 [1]: Not Active
